Data on three compounds can be found in US20020165213A1, “Estrogen induced neural stem cell increase” (Neurostasis, Inc., priority 2001, published 2002).

In one assay the test system is SVZ proliferating cells. Particulars: literature (Alonso, 2000; Tanapat et al., 1999); cited from earlier work.
The subject of assay [1] is proliferating cells in the dentate gyrus. Particulars: literature (Alonso, 2000; Tanapat et al., 1999); cited from earlier work.
Assay [2] relates to adult neural stem cells (adult subventricular zone). The assay can be described thus: Estradiol on adult neural stem cell cultures: secondary spheres from one single sphere. The class given is cell-based. On the procedure:
(§1) To determine if estradiol, the main form of estrogen, increases the number of neural stem cells, the effect of estradiol on neural stem cell cultures was examined. Primary neural stem cells (from embryonic day 14 or adult subventricular zone) were cultured in EGF for seven days to make neurospheres. These primary neurospheres were then dissociated and re-plated in EGF to make pass 1 neurospheres. Pass 1 neurospheres, either embryonic or adult, were dissociated and plated (50,000 cell/ml) in culture medium containing EGF alone or EGF+4 nM estradiol. The culture was allowed to progress for seven days. To determine the number of neural stem cells in each culture, single spheres (15-20 per experiment) were dissociated and plated in single wells of a 96 well plate in culture medium containing EGF only. After 7 days, the number of spheres which came from one single sphere was counted. The following data represent the results from 15-20 replicates.

Assay [3] has as its system embryonic neural stem cells (embryonic day 14). As to the kind of experiment: Estradiol on embryonic neural stem cell cultures: secondary spheres from one single sphere. The assay is classed as cell-based. The protocol: as §1
Where [4] appears, read: EGF+4 nM estradiol versus EGF alone.

Consider Estrogen, for which the “cell proliferation / mitotic activity in the SVZ” value in the assay on SVZ proliferating cells was “no mitotic activity”. Also, in assay [1], the “cell proliferation in the dentate gyrus” value is recorded as “stimulate proliferation”.

Consider `C[C@]12C[C@H](O)[C@H]3[C@@H](CCC4=CC(=O)CC[C@@]43C)[C@@H]1CC[C@@H]2C(=O)CO` [corticosterone], for which the “cell proliferation / mitotic activity in the SVZ” value in the assay with SVZ proliferating cells was “no effect”. In addition, the “cell proliferation in the dentate gyrus” value in assay [1] was “dramatically decreases cell proliferation”.

On to `C[C@]12CC[C@@H]3c4ccc(O)cc4CC[C@H]3[C@@H]1CC[C@@H]2O` [estradiol], for which the “# secondary spheres from one single sphere” value in assay [2] (Adult pass 1 neurospheres, EGF+4 nM estradiol, seven days, single spheres re-plated in EGF only, counted after 7 days, 15-20 replicates) stood at 78±11; in assay [3] (Embryo pass 1 neurospheres, EGF+4 nM estradiol, seven days, single spheres re-plated in EGF only, counted after 7 days, 15-20 replicates), 104±15. Moreover, the “increase in the number of adult neural stem cells in response to estradiol” value in assay [2] (setting [4]) is reported as 35%. Besides, in assay [3] (setting [4]), the “increase in the number of embryonic neural stem cells in response to estradiol” value is listed as 150%.
